# Experimental data as given in PMC11794875, “Molecular basis for azetidine-2-carboxylic acid biosynthesis” (Nature Communications, 2025).
# Where two headings read alike, the source gives them in different places.
# Legend:
# AzeJ [1] = target: T1, AzeJ (Pseudomonas aeruginosa, UniProt Q9HYR0); experiment: X-ray crystal structure, […] Å; format: binding; settings: co-crystallised with 2 mM SAM, pH 7.0 or 7.2, formed in crystal, active site
# T1 construct: gene PA3335; N-terminal His6-SUMO fusion in pETDuet, codon-optimised, SUMO tag cleaved by Ulp1; E. coli BL21 Gold (DE3); homodimer
# T1 sequence (Q9HYR0 entry or part of it): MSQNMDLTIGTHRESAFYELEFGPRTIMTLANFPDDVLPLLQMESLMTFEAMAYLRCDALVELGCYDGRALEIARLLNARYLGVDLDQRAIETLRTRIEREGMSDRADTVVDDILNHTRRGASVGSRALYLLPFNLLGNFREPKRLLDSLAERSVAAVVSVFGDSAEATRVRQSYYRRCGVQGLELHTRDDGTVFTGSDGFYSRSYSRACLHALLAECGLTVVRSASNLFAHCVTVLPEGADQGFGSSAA
# AzeJ [2] = target: T1, AzeJ; format: binding; settings: 100 mM Tris-HCl, pH 8.0, 10 µM protein
# VioH = target: T2, VioH (Archangium violaceum, UniProt Z9G018KSM0); experiment: in vitro AZE synthase activity assay, HPLC; format: biochemical; settings: without VioG partner
# T2 construct: N-terminal His6-SUMO fusion in pETDuet, codon-optimised, SUMO tag cleaved by Ulp1; E. coli BL21 Gold (DE3); monomer
# T2 sequence (Z9G018KSM0 1-236): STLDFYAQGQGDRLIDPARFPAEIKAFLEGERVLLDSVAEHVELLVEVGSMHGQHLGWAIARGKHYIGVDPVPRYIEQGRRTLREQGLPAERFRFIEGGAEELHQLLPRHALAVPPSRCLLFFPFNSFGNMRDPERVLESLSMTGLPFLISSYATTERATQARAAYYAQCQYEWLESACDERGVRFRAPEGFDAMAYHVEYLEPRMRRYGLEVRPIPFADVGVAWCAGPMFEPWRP
compound,measurement,setting,value
"O=C(O)[C@@H]1CCN1 [AZE, azetidine-2-carboxylic acid]","X-ray crystal structure, 1.95 Å",AzeJ [1]; with MTA,Fo-Fc electron density maps reveal that MTA and AZE are bound to the active site
"CSC[C@H]1O[C@@H](n2cnc3c(N)ncnc32)[C@H](O)[C@@H]1O [MTA, 5′-methylthioadenosine]","X-ray crystal structure, 1.95 Å",AzeJ [1]; with AZE,Fo-Fc electron density maps reveal that MTA and AZE are bound to the active site
"Nc1ncnc2c1ncn2[C@@H]1O[C@H](CSCC[C@H](N)C(=O)O)[C@@H](O)[C@H]1O [SAH, S-adenosyl-L-homocysteine]",dTm,AzeJ [2]; 0–1 mM SAH,"In the presence of SAM or SAH, the melting temperature of AzeJ increased"
"C[S+](CC[C@H](N)C(=O)O)C[C@H]1O[C@@H](n2cnc3c(N)ncnc32)[C@H](O)[C@@H]1O (some centres unmarked) [SAM, S-adenosylmethionine]",dTm,AzeJ [2]; 0–1 mM SAM,"In the presence of SAM or SAH, the melting temperature of AzeJ increased"
same,"in vitro AZE synthase activity assay, HPLC",VioH,in vitro observation that VioH alone had minimal catalytic activity (Fig. S8)
